Among the test systems are 786-0; A549; CAKI-1; COLO 205; EKVX; HCT-15; HT-29; LOX IMVI; MDA-N; MOLT-4; NCI-H460; NCI/ADR-RES; OVCAR-3; OVCAR-5; RXF 393; SF-268; SNB-19; SNB-75; UACC-62; UO-31.
What all share (assay): DTP human tumour cell line panel, 48 h

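Exposure lasted 48 hours, with cells grown in 96-well plates and compounds tested at five concentrations. At the GI50, growth is halved.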 The source made the active and inactive calls. No stated cut-off is given here; in the data, active = GI50 up to about 1.1 µM and inactive = higher. Some results are limits rather than exact numbers.

The term GI50 denotes the concentration giving 50% growth inhibition. With `CCOc1ccc2nc3nc(O)nc(C)c3c(NCCCN(CC)CC)c2c1`, the GI50 in the assay with 786-0 is > 100 µM (inactive); in the assay with A549 it was > 100 µM (inactive); in the assay with CAKI-1 it was > 100 µM (inactive); with COLO 205 it was > 100 µM (inactive); in the assay on EKVX, > 100 µM (inactive); in the assay with HCT-15 it was above 100 µM. Moreover, the GI50 in the assay on HT-29 is > 100000 nM (inactive); in the assay on LOX IMVI, > 100 µM (inactive); in the assay with MDA-N, > 100 µM (inactive); with MOLT-4, > 100 µM (inactive); in the assay on NCI-H460, > 100 µM (inactive); with NCI/ADR-RES, > 100 µM (inactive). Moreover, the GI50 with OVCAR-3, in the assay with OVCAR-5, with RXF 393, with SF-268, in the assay with SNB-19 and with SNB-75 was > 100 µM (inactive) in each case. Besides, the GI50 in the assay on UACC-62 and in the assay on UO-31 was > 100 µM (inactive) in each case.

`COc1ccc2c(c1)CN([C@@H](C)[C@H]1CC[C@H]3[C@@H]4CC[C@H]5C[C@@H](O)CC[C@]5(C)[C@H]4CC[C@]13C)CO2`: the GI50 with 786-0 was 1.3 µM (inactive); in the assay on A549, 1.76 µM (inactive); with CAKI-1, 4.75 µM (inactive); with COLO 205, 2 µM (inactive); in the assay with EKVX it was 3.36 µM (inactive); with HCT-15, 1.32 µM. For the same molecule, the GI50 was 964 nM (active) in the assay with HT-29; 1.58 µM (inactive) with LOX IMVI; 1.7 µM (inactive) with MDA-N; 1.03 µM (active) with MOLT-4; 1.23 µM (inactive) with NCI-H460; 3.37 µM (inactive) in the assay with NCI/ADR-RES. The GI50 was 5.79 µM (inactive) in the assay on OVCAR-3; 3.13 µM (inactive) with OVCAR-5; 1.19 µM (inactive) in the assay on RXF 393; 2.26 µM (inactive) in the assay with SF-268; 1.96 µM (inactive) in the assay with SNB-19; 2.37 µM (inactive) in the assay on SNB-75. In addition, the GI50 in the assay on UACC-62 was 2 µM (inactive); in the assay on UO-31, 1.81 µM (inactive).

As for `CCCCCCCCCCCCC/C=C(/COCC[N+](C)(C)C)OC(C)=O.CCCCCCCCCCCCCC/C(=C/OCC[N+](C)(C)C)OC(C)=O`, the 50% growth inhibitory concentration (GI50) was 1.08 µM (active) with 786-0; 1.71 µM (inactive) in the assay with A549; 1.58 µM (inactive) in the assay with CAKI-1; 1.48 µM (inactive) in the assay with COLO 205; 3.1 µM (inactive) with EKVX; 3.43 µM with HCT-15. In addition, the concentration for 50% growth inhibition (GI50) with HT-29 is 356 nM (active); in the assay on LOX IMVI it was 0.377 µM (active); with MDA-N it was 3.07 µM (inactive); in the assay on MOLT-4, 2.29 µM (inactive); in the assay with NCI-H460, 0.63 µM (active); in the assay with NCI/ADR-RES, 17.6 µM (inactive). The GI50 is 1.61 µM (inactive) in the assay on OVCAR-3; 2.44 µM (inactive) with OVCAR-5; 0.716 µM (active) in the assay with RXF 393; 1.87 µM (inactive) in the assay on SF-268; 1.47 µM (inactive) in the assay with SNB-19; 2.54 µM (inactive) in the assay with SNB-75. Further, the GI50 was 1.74 µM (inactive) with UACC-62 and 14.3 µM (inactive) in the assay with UO-31.
